For 15 compounds, GI50 and TGI results are on record in PubChem BioAssay (NCI).

SMILES strings stand for the structures.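 Grown in 96-well plates, cells were treated for 48 hours with each compound at five concentrations. Insufficient inhibition: endpoint recorded as highest concentration tested. GI50 = concentration required for 50% inhibition of growth. TGI: total growth inhibition.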 A value given as a limit tells only on which side of the number the result lay.

Holding throughout (test): NCI-60 cell line screen, 48 h
Assay [1] deals with LOX IMVI melanoma.
For assay [2], the system named is KM12 colon.
For assay [3], the system named is UACC-62 melanoma.
Assay [4] concerns ACHN renal.
The test system of assay [5] is SR leukemia.
In assay [6] the test system is UACC-257 melanoma.
In assay [7] the test system is MOLT-4 leukemia.
The subject of assay [8] is DU-145 prostate.
The subject of assay [9] is TK-10 renal.
In assay [10] the test system is SNB-19 CNS.

In the case of `Cc1cc(NCCCNc2ccnc3cc(Cl)ccc23)nc(N2CCN(C)CC2)n1`, the GI50 in assay [1] is 2 µM; in assay [2], 3.97 µM; in assay [3], 2.05 µM; in assay [4] it was 3.71 µM; in assay [5] it was 1.81 µM; in assay [6] it was 1.8 µM. In addition, the GI50 is 2.46 µM in [7], 5.5 µM in [8], 6.51 µM in [9] and 12.5 µM in assay [10]. Besides, the TGI in assay [1] is 5.2 µM; in assay [2] it was 17.1 µM; in assay [3] it was 4.55 µM; in [4] it was 21 µM; in assay [5] it was 6.41 µM; in assay [6], 3.88 µM. For the same compound, the TGI in assay [7] came to 15.8 µM; in assay [8] it was 17.9 µM; in assay [9], 29.9 µM; in assay [10], 49.5 µM.

For the compound `CC/C(=C(/c1ccc(OCCN(C)C)cc1)c1ccc(OC(=O)CCC(=O)c2c(C)[nH]c(/C=C3\N=C(c4ccc[nH]4)C=C3OC)c2C)cc1)c1ccccc1`, the GI50 is 0.456 µM in [1]; 1.21 µM in [2]; 1.81 µM in assay [3]; 2.57 µM in assay [4]; 0.694 µM in assay [5]; 3.38 µM in assay [6]. Also, the GI50 in assay [7] was 0.974 µM; in [8], 3.27 µM; in [9], 4.87 µM; in assay [10], 5.49 µM. Moreover, the TGI in assay [1] is 1.69 µM; in assay [2], 10 µM; in assay [3], 3.78 µM; in assay [4], 15.9 µM; in assay [5] it was 5.38 µM; in assay [6] it was 14.7 µM. Also, the TGI in assay [7] was 4.25 µM; in assay [8], 16.8 µM; in assay [9] it was 15.7 µM; in assay [10], 21.8 µM.

For the compound `CCN1/C(=C/C=C/c2n(-c3ccccc3)c3ccc(-c4nc5ccccc5s4)cc3[n+]2CC)N(c2ccccc2)c2ccc(-c3nc4ccccc4s3)cc21`, the GI50 is 1.22 µM in assay [1]; 1.24 µM in assay [2]; 0.97 µM in assay [3]; 0.622 µM in assay [4]; 1.4 µM in assay [5]; 0.539 µM in [6]. In addition, the GI50 in assay [7] was 1.8 µM; in assay [8] it was 0.374 µM; in assay [9], 1.94 µM; in assay [10], 0.369 µM. Besides, the TGI is above 50 µM in assay [1]; above 50 µM in [2]; above 50 µM in assay [3]; above 50 µM in assay [4]; above 50 µM in assay [5]; above 15.4 µM in [6]. Besides, the TGI in assay [7] was above 50 µM; in [8], 2.49 µM; in assay [9], above 50 µM; in assay [10], above 50 µM.

Take `O=C1C2C(C(=O)[N]1[Hg][c]1cccs1)C1(Cl)C(Cl)=C(Cl)C2(Cl)C1(Cl)Cl` (stereo not drawn): the GI50 was 0.708 µM in [1]; 11.7 µM in assay [2]; 1.27 µM in assay [3]; 1.61 µM in [4]; 0.146 µM in [5]; 1.28 µM in assay [6]. For the same compound, the GI50 in [7] was 0.371 µM; in [8], 1.8 µM; in assay [9] it was 1.65 µM; in assay [10], 1.72 µM. Moreover, the TGI was 1.94 µM in assay [1]; 24.3 µM in assay [2]; 2.89 µM in assay [3]; 3.04 µM in assay [4]; 2.83 µM in [6]; 5.01 µM in assay [7]. The TGI in assay [8] came out at 4.72 µM; in [9] it was 3.04 µM; in assay [10], 3.4 µM.

For `Fc1ccc(-c2nn3c(-c4ccc(F)c(Cl)c4)nnc3s2)cc1`, the GI50 in assay [1] was 32.8 µM; in [2], above 50 µM; in assay [3] it was 34.8 µM; in assay [4] it was 29.1 µM; in assay [5], 43.8 µM; in [6] it was 10.6 µM. The GI50 is 26.3 µM in assay [7], 36.3 µM in assay [8], 14.2 µM in assay [9] and 20.1 µM in assay [10]. The TGI in [1] was above 50 µM; in assay [2] it was above 50 µM; in [3] it was above 50 µM; in [4], above 50 µM; in [5], above 50 µM; in assay [6], 41.6 µM. Besides, the TGI in [7], in assay [8], in [9] and in assay [10] was above 50 µM throughout.

Consider `O=C(Nc1ccccc1)c1nn(-c2cc(S(=O)(=O)O)c([N+](=O)[O-])cc2Cl)[n+](-c2cc(S(=O)(=O)[O-])c([N+](=O)[O-])cc2Cl)n1`, for which the TGI in [1], in [2], in assay [3], in assay [4], in assay [5] and in assay [6] was above 100 µM each time. For the same compound, the TGI in assay [7], in [8], in assay [9] and in assay [10] was above 100 µM each time.

With `CC(=O)Nc1ccc(/C=C/C(=O)c2ccccc2)cc1`, the GI50 is 4.71 µM in assay [1]; 4.47 µM in [2]; 17.8 µM in assay [3]; 13.1 µM in assay [4]; 3.24 µM in assay [5]; 20.7 µM in assay [6]. Besides, the GI50 is 5.55 µM in assay [7], 3.13 µM in assay [8], 14.6 µM in [9] and 13.5 µM in assay [10]. In addition, the TGI in assay [1] came out at 18.9 µM; in assay [2], 16 µM; in [3] it was 39.2 µM; in assay [4], 29.6 µM; in assay [5], 22 µM; in assay [6], 54.7 µM. For the same compound, the TGI in [7] came to 68.4 µM; in [8] it was 10.6 µM; in assay [9], 29.8 µM; in [10], 34.1 µM.

As to `C/C=C/C/C=C/CCC(=O)[C@H]1O[C@H]1C(N)=O`, the GI50 was 8.38 µM in [1]; 17.2 µM in assay [2]; 11.4 µM in assay [3]; 12.6 µM in [5]; 13.1 µM in [6]; 8.56 µM in [7]. For the same compound, the GI50 in assay [8] was 13.7 µM; in [9], 16.5 µM; in assay [10], 14.5 µM. The TGI in assay [1] was 21.5 µM; in assay [2], 32 µM; in [3], 23.9 µM; in assay [4] it was 26.9 µM; in assay [5], above 100 µM; in [6] it was 27.3 µM. Besides, the TGI in assay [7] turned out to be 52 µM; in [8], 27.1 µM; in [9], 30.5 µM; in assay [10] it was 29.5 µM.

Consider `Nc1ccccc1-c1ccc([N+](=O)[O-])cc1`, for which the GI50 is 37.4 µM in [1]; 1.59 µM in assay [2]; 0.756 µM in assay [3]; 4.99 µM in assay [4]; 29 µM in assay [5]; 21.1 µM in assay [6]. Further, the GI50 was 4.28 µM in [7], 73.1 µM in [8], 25.9 µM in assay [9] and 24.2 µM in assay [10]. Besides, the TGI in assay [1] was above 100 µM; in [2], 11.4 µM; in [3] it was 19.4 µM; in assay [4] it was above 100 µM; in assay [5], above 100 µM; in assay [6] it was above 100 µM. In addition, the TGI in assay [7], in assay [8], in assay [9] and in assay [10] was above 100 µM throughout.

As to `Cc1ccc(NC(=O)Cc2ccc(/C=C/C(=O)c3ncc[nH]3)cc2)cc1`, the GI50 was 1.29 µM in assay [1]; 3.09 µM in [2]; 8.29 µM in [3]; 6.51 µM in [4]; 0.992 µM in assay [5]; above 25 µM in assay [6]. In addition, the GI50 was 5.33 µM in assay [7], 4.56 µM in assay [8], 7.93 µM in assay [9] and 6.65 µM in assay [10]. The TGI in [1] was 6.76 µM; in assay [2] it was 12.7 µM; in assay [3] it was above 25 µM; in assay [4], 21.4 µM; in [5] it was above 25 µM; in [6] it was above 25 µM. In addition, the TGI in assay [7], in assay [8], in assay [9] and in assay [10] was above 25 µM throughout.

As to `N=C(N)c1ccc(OCCOCCOc2ccc(C(=N)N)cc2)cc1`, the GI50 is above 100 µM in [1]; 41.6 µM in assay [2]; above 100 µM in assay [3]; above 100 µM in assay [4]; 31.7 µM in [5]; 38.3 µM in assay [6]. The GI50 is above 100 µM in [7], 96.1 µM in [8], 39.2 µM in [9] and 80.6 µM in assay [10]. Further, the TGI in assay [1], in [2], in assay [3], in assay [4], in assay [5] and in [6] was above 100 µM throughout. Moreover, the TGI in assay [7], in assay [8], in assay [9] and in assay [10] was above 100 µM throughout.

Turning to `O=c1ccc(N=Nc2ccc([N+](=O)[O-])cc2)ccc1O`, the GI50 in assay [1] is 3.36 µM; in assay [2], 5.54 µM; in assay [3] it was 8.45 µM; in assay [4], 7.07 µM; in [5], 4.13 µM; in [6], 10.6 µM. Further, the GI50 in assay [7] is 4.08 µM; in assay [8] it was 19 µM; in assay [9] it was 20 µM; in assay [10], 4.14 µM. Besides, the TGI in assay [1] was above 100 µM; in assay [2] it was above 100 µM; in assay [3] it was 43.9 µM; in assay [4], above 100 µM; in assay [5], above 100 µM; in assay [6], 81.6 µM. Moreover, the TGI in [7], in assay [8], in [9] and in [10] was above 100 µM throughout.

As to `Cn1ccnc1C(=O)/C=C/c1ccc(C(=O)Nc2ccc(S(F)(F)(F)(F)F)cc2)cc1`, the GI50 was 1.01 µM in assay [1]; 2.77 µM in [2]; 2.28 µM in [3]; 5.12 µM in [4]; 0.391 µM in assay [5]; 2.18 µM in assay [6]. In addition, the GI50 in assay [7] was 1.72 µM; in [8] it was 2.41 µM; in [9], 4 µM; in [10] it was 2.34 µM. In addition, the TGI in assay [1] was 3.25 µM; in assay [2], above 14.3 µM; in assay [3], above 14.3 µM; in [4] it was above 14.3 µM; in [5], 10.3 µM; in assay [6], above 14.3 µM. The TGI in [7] is 10.1 µM; in assay [8] it was above 14.3 µM; in [9], above 14.3 µM; in assay [10], above 14.3 µM.

Regarding `Cc1ccc2c(c1)c1nc3cc(C)c(C)cc3nc1n2CCN(C)C`, the GI50 in [1] is 1.45 µM; in [2], 2.67 µM; in assay [3], 1.59 µM; in [4] it was 0.821 µM; in assay [5] it was 1.06 µM; in assay [6] it was 2.2 µM. Further, the GI50 was 1.73 µM in assay [7], 2.9 µM in assay [8], 2.11 µM in assay [9] and 2.5 µM in [10]. Also, the TGI in assay [1] came out at 4.45 µM; in assay [2] it was 10.5 µM; in assay [3] it was 3.57 µM; in assay [4], 5.92 µM; in assay [5], 14.2 µM; in [6], 5.48 µM. Further, the TGI in assay [7] was 16.3 µM; in assay [8], 10.6 µM; in assay [9], 7.94 µM; in [10] it was 9.88 µM.

Regarding `CCCCCCc1cc2cc(-c3nc4ccccc4[nH]3)c(=Nc3ccccc3C)oc2cc1O`, the GI50 in [1] was 1.87 µM; in [2] it was 3.27 µM; in [3], 1.62 µM; in assay [4], 2.04 µM; in [5], 1.86 µM; in assay [6] it was 2.6 µM. Also, the GI50 in assay [7] was 3.9 µM; in assay [8], 2.96 µM; in [9] it was 2.27 µM; in assay [10] it was 3.58 µM. Further, the TGI in assay [1] worked out at 3.74 µM; in assay [2], 11.7 µM; in [3] it was 3.41 µM; in assay [4] it was 5.24 µM; in [5] it was 4.47 µM; in assay [6], 7.01 µM. Also, the TGI in assay [7] is 22.5 µM; in assay [8], 7.77 µM; in assay [9], 4.48 µM; in assay [10], 22 µM.
